These results are taken from article PMC6704710, “Preclinical evaluation of 3D185, a novel potent inhibitor of FGFR1/2/3 and CSF-1R, in FGFR-dependent and macrophage-dominant cancer models” (Journal of Experimental & Clinical Cancer Research : CR, 2019).

The inhibition is the drop in the measured response relative to a control, in per cent.

What all share (test): Eurofins kinase panel
Type in all cases: biochemical
What all share (conditions): read-out: Inhibition rate (%)

The target of one assay is T1, ALK4(h) (Homo sapiens, UniProt P36896).
T1 construct: purchased Eurofins (KinaseProfiler)
T1 sequence (P36896 24-505): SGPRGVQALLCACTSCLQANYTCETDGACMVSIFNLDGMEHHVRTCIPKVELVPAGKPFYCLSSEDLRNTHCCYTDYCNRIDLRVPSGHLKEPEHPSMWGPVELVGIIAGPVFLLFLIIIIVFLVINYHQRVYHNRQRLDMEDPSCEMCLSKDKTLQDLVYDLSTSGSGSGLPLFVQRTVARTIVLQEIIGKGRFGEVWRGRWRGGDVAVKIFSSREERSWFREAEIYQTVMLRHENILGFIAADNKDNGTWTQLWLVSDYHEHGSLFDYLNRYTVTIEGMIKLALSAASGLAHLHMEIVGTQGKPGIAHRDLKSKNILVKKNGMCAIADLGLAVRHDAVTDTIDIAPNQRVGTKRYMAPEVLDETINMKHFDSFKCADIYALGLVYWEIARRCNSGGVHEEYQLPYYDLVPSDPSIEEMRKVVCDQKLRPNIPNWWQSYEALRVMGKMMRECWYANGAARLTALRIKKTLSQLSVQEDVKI

For a further assay, the target named is T2, CHK1(h) (Homo sapiens, UniProt O14757).
T2 construct: purchased Eurofins (KinaseProfiler)
T2 sequence (O14757 1-476): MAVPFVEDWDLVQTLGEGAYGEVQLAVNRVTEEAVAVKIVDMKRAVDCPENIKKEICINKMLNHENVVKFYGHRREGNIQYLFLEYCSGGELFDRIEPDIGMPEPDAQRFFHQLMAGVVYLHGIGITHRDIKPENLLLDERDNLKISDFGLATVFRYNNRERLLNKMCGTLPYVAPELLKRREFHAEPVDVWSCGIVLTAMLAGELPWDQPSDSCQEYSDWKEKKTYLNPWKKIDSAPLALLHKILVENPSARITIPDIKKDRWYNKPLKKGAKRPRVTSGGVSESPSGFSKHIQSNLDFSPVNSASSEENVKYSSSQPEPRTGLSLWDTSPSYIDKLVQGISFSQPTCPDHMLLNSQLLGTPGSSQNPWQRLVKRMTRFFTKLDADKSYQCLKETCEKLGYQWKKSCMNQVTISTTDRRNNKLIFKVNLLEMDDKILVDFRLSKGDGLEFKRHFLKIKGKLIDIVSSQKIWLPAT

A further assay addresses T3, Cdc7/cyclinB1(h) (Homo sapiens, UniProt O00311).
T3 construct: purchased Eurofins (KinaseProfiler)

The next assay concerns the target T4, EphA4(h) (Homo sapiens, UniProt P54764).
T4 construct: purchased Eurofins (KinaseProfiler)

Another assay addresses T5, HIPK3(h) (Homo sapiens, UniProt Q9H422).
T5 construct: purchased Eurofins (KinaseProfiler)

For the next assay, the target named is T6, SBK1(h) (Homo sapiens, UniProt Q52WX2).
T6 construct: purchased Eurofins (KinaseProfiler)
T6 sequence (Q52WX2 whole entry): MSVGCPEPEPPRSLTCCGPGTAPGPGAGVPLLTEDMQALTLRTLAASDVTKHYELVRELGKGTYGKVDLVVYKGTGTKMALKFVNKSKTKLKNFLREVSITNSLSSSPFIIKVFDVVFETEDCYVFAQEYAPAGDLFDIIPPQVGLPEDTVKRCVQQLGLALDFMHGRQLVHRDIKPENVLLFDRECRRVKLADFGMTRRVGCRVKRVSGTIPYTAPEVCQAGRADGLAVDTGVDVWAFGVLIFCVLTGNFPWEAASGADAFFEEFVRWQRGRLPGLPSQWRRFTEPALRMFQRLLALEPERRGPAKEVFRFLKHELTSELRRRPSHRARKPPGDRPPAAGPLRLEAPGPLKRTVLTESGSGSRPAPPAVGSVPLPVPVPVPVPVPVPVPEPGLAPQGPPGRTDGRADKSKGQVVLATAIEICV

Another assay addresses T7, Src(1-530)(h) (Homo sapiens, UniProt P12931).
T7 construct: purchased Eurofins (KinaseProfiler)

Another assay addresses T8, ULK1(h) (Homo sapiens, UniProt O75385).
T8 construct: purchased Eurofins (KinaseProfiler)
T8 sequence (O75385 1-1050): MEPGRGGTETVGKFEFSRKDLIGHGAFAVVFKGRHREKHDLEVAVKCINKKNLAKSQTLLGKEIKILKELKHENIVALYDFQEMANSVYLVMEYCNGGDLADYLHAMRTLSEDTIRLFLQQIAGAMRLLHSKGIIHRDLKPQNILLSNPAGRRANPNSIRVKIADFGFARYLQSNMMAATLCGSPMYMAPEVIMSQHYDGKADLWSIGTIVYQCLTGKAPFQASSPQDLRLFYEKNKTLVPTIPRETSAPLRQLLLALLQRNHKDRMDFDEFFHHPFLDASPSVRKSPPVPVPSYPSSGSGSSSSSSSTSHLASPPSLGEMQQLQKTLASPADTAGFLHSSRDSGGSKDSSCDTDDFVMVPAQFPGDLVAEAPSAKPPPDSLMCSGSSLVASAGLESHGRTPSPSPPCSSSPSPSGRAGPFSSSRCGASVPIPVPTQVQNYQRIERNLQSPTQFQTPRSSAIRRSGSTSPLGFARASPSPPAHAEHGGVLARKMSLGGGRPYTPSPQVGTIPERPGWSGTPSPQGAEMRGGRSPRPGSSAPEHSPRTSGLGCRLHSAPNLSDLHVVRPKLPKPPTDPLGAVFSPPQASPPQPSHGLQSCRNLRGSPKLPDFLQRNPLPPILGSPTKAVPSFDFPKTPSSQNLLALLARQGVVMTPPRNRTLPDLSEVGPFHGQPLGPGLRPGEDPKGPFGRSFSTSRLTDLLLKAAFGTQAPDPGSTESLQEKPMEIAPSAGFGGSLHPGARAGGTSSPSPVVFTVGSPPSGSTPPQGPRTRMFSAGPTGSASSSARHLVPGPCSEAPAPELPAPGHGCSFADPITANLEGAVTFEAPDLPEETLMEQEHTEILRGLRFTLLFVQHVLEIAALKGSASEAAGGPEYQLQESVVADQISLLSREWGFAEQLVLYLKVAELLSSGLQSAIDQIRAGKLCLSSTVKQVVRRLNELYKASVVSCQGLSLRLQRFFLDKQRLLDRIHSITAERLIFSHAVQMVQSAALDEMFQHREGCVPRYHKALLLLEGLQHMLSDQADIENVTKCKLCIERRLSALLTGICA

T3 sequence (O00311 whole entry): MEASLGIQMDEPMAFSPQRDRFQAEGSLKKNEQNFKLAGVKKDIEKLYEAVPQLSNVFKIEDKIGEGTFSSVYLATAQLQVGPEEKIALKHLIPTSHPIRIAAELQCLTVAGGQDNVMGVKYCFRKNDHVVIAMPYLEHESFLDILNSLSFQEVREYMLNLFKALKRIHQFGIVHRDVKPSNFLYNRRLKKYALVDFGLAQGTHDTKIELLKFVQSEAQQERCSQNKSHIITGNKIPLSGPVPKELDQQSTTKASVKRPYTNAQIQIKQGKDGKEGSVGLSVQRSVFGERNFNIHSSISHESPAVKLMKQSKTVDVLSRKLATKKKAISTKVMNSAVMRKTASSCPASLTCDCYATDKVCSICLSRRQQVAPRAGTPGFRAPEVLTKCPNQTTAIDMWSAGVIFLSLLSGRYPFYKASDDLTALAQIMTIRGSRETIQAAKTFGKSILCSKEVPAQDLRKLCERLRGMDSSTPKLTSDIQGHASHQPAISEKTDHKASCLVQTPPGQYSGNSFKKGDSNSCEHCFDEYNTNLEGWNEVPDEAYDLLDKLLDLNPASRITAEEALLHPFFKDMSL
T7 sequence (P12931 1-530 limits assumed): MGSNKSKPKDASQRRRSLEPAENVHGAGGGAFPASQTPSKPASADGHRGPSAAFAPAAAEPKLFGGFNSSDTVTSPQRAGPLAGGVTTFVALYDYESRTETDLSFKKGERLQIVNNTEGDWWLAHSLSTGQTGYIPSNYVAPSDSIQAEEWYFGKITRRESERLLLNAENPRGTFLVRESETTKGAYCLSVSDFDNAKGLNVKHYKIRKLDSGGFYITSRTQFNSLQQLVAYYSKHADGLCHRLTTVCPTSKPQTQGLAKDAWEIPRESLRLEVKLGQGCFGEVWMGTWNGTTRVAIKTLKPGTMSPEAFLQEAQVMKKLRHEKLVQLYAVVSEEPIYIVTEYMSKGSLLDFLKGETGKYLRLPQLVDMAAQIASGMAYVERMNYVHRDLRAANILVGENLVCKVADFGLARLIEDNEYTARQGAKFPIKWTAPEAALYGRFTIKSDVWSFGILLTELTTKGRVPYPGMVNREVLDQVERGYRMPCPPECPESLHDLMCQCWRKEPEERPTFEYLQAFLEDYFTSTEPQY
T4 sequence (P54764 20-986): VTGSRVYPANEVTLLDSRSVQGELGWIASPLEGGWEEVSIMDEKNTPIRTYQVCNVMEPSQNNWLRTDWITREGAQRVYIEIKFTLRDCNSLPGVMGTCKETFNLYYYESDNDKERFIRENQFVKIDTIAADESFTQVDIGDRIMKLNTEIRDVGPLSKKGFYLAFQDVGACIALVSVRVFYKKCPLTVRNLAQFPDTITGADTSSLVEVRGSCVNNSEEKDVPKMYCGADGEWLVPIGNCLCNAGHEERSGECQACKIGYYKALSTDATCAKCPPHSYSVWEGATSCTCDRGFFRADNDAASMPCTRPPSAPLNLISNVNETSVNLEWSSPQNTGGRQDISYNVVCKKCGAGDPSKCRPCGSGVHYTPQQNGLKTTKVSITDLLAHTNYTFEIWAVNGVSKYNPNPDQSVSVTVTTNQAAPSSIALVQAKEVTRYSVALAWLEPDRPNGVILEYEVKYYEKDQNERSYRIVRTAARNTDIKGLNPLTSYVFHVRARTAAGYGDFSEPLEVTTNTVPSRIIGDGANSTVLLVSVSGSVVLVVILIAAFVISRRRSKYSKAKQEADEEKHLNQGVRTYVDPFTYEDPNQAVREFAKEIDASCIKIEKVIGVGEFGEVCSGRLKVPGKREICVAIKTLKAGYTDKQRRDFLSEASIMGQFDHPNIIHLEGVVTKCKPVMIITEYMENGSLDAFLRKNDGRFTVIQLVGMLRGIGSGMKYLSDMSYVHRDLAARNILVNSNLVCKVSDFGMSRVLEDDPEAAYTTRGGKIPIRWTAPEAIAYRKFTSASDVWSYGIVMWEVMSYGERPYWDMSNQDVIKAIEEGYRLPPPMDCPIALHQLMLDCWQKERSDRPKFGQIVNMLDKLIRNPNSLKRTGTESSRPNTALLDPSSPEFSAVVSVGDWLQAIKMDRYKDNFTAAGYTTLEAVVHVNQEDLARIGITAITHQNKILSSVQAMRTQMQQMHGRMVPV
T5 sequence (Q9H422 whole entry): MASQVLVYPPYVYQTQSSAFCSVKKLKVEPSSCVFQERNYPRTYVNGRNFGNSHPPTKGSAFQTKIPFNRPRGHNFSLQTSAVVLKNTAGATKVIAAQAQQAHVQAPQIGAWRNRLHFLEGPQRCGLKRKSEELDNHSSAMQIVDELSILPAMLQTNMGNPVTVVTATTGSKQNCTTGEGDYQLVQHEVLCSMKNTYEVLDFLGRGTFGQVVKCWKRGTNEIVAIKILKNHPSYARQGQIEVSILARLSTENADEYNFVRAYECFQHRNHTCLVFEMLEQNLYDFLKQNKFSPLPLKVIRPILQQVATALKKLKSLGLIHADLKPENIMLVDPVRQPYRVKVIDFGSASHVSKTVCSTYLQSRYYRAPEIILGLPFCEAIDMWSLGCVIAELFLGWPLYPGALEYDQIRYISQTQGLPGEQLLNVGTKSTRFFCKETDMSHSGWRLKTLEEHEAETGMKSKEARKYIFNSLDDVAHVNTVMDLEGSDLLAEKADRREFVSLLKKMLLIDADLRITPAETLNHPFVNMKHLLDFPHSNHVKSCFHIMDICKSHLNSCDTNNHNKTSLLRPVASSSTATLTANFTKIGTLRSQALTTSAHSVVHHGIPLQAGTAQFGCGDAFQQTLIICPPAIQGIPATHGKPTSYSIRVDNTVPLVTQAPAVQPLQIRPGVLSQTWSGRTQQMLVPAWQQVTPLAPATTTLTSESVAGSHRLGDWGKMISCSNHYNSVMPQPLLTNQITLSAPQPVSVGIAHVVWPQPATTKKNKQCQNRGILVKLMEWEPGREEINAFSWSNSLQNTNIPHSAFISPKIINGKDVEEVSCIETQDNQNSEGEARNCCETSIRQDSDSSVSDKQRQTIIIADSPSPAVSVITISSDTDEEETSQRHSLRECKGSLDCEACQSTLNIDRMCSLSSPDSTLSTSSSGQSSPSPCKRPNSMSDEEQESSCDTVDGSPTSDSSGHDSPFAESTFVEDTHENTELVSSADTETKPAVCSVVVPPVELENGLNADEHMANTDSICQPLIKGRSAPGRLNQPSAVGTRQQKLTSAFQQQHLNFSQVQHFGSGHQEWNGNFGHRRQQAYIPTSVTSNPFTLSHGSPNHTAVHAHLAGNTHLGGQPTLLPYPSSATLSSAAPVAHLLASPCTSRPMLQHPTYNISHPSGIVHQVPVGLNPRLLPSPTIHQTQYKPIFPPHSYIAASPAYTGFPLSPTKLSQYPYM

Consider `COc1cc(OC)c(Cl)c(-c2ccc3c(NC(=O)c4ccc(N5CCNC(C)(C)C5)cc4)n[nH]c3n2)c1Cl` [3D185], for which the inhibition at 0.01 µM on ALK4(h) (10 nM) is -4%; on CHK1(h) (10 nM) it was 3%; on Cdc7/cyclinB1(h) (10 nM), 5%; at EphA4(h) (10 nM), 14%; at HIPK3(h) (10 nM), -2%; at SBK1(h) (10 nM), -13%. The inhibition at 0.01 µM is 4% at Src(1-530)(h) (10 nM) and -2% on ULK1(h) (10 nM). Further, the inhibition at 0.1 µM on ALK4(h) (100 nM) was -7%; at CHK1(h) (100 nM), -6%; at Cdc7/cyclinB1(h) (100 nM), -5%; at EphA4(h) (100 nM), 5%; at HIPK3(h) (100 nM) it was -12%; at SBK1(h) (100 nM), -3%. The inhibition at 0.1 µM on Src(1-530)(h) (100 nM) was determined as 30%; on ULK1(h) (100 nM), 4%. Moreover, the inhibition at 1 µM on ALK4(h) (1000 nM) is 5%; on CHK1(h) (1000 nM) it was -3%; on Cdc7/cyclinB1(h) (1000 nM), 8%; at EphA4(h) (1000 nM) it was 13%; at HIPK3(h) (1000 nM) it was -8%; at SBK1(h) (1000 nM) it was -10%. Moreover, the inhibition at 1 µM at Src(1-530)(h) (1000 nM) was 82%; at ULK1(h) (1000 nM), 5%.
